Results reported in PubChem BioAssay (NCI).
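Growth conditions: 96-well plates. Treatment: test compound, 48 hours, 5 concentrations. Analysis: linear interpolation between bracketing concentrations; unreached endpoints set to highest concentration. The concentration for 50% growth inhibition is given as GI50. TGI is the concentration that stops growth completely.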

Columns and labels:
Experiment in all cases: NCI tumour cell line growth inhibition, 48 h
NCI-H226 lung = tested on: NCI-H226 lung
NCI-H23 lung = tested on: NCI-H23 lung
NCI-H460 lung = tested on: NCI-H460 lung
NCI-H522 lung = tested on: NCI-H522 lung
NCI/ADR-RES ovarian = tested on: NCI/ADR-RES ovarian
OVCAR-3 ovarian = tested on: OVCAR-3 ovarian
OVCAR-4 ovarian = tested on: OVCAR-4 ovarian
OVCAR-5 ovarian = tested on: OVCAR-5 ovarian
OVCAR-8 ovarian = tested on: OVCAR-8 ovarian
PC-3 prostate = tested on: PC-3 prostate
RPMI-8226 leukemia = tested on: RPMI-8226 leukemia
RXF 393 renal = tested on: RXF 393 renal
SF-268 CNS = tested on: SF-268 CNS
SF-295 CNS = tested on: SF-295 CNS
SF-539 CNS = tested on: SF-539 CNS
SK-MEL-2 melanoma = tested on: SK-MEL-2 melanoma
SK-MEL-28 melanoma = tested on: SK-MEL-28 melanoma
SK-MEL-5 melanoma = tested on: SK-MEL-5 melanoma
SK-OV-3 ovarian = tested on: SK-OV-3 ovarian
SN12C renal = tested on: SN12C renal
SNB-19 CNS = tested on: SNB-19 CNS
SNB-75 CNS = tested on: SNB-75 CNS
SR leukemia = tested on: SR leukemia
SW-620 colon = tested on: SW-620 colon
T-47D breast = tested on: T-47D breast
TK-10 renal = tested on: TK-10 renal
U251 CNS = tested on: U251 CNS
UACC-257 melanoma = tested on: UACC-257 melanoma
UACC-62 melanoma = tested on: UACC-62 melanoma
UO-31 renal = tested on: UO-31 renal

## S=C(NCCc1ccccc1)Nc1ccc(OCc2nc3ccc(Cl)cc3[nH]2)cc1
NCI-H226 lung
  TGI: 35.5 µM
NCI-H23 lung
  GI50: 10.9 µM
  TGI: 23.7 µM
NCI-H460 lung
  GI50: 4.31 µM
  TGI: 17.3 µM
NCI-H522 lung
  GI50: 2.22 µM
  TGI: 7.02 µM
NCI/ADR-RES ovarian
  GI50: 7.15 µM
  TGI: 25.5 µM
OVCAR-3 ovarian
  GI50: 3.51 µM
  TGI: 17.1 µM
OVCAR-4 ovarian
  GI50: 7 µM
  TGI: 23.9 µM
OVCAR-5 ovarian
  GI50: 11.5 µM
  TGI: 23.6 µM
OVCAR-8 ovarian
  GI50: 11.9 µM
  TGI: 30.4 µM
PC-3 prostate
  GI50: 6.8 µM
  TGI: 22.9 µM
RPMI-8226 leukemia
  GI50: 4.54 µM
  TGI: 45.5 µM
RXF 393 renal
  GI50: 4.07 µM
  TGI: 17.1 µM
SF-268 CNS
  GI50: 11.1 µM
  TGI: 27.1 µM
SF-295 CNS
  GI50: 7.08 µM
  TGI: 21.7 µM
SF-539 CNS
  GI50: 8.77 µM
  TGI: 20.9 µM
SK-MEL-2 melanoma
  GI50: 13.1 µM
  TGI: 26.2 µM
SK-MEL-28 melanoma
  GI50: 12.6 µM
  TGI: 25.3 µM
SK-MEL-5 melanoma
  GI50: 12.7 µM
  TGI: 25.7 µM
SK-OV-3 ovarian
  GI50: 14.2 µM
  TGI: 27.9 µM
SN12C renal
  GI50: 6.28 µM
  TGI: 20.1 µM
SNB-19 CNS
  GI50: 11.6 µM
  TGI: 23.8 µM
SNB-75 CNS
  GI50: 1.63 µM
  TGI: 14.9 µM
SR leukemia
  GI50: 2.2 µM
  TGI: 6.99 µM
SW-620 colon
  GI50: 9.72 µM
  TGI: 22.7 µM
T-47D breast
  GI50: 5.61 µM
  TGI: 25.3 µM
TK-10 renal
  GI50: 13.8 µM
  TGI: 27.3 µM
U251 CNS
  GI50: 13.1 µM
  TGI: 27.1 µM
UACC-257 melanoma
  GI50: 13.7 µM
  TGI: 27.4 µM
UACC-62 melanoma
  GI50: 7.94 µM
  TGI: 20.8 µM
UO-31 renal
  GI50: 3.37 µM
  TGI: 16 µM
